According to PubChem BioAssay (NCI):
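Where inhibition never reached the appropriate level, the endpoint shown equals the highest concentration tested. Otherwise, values were interpolated linearly from a five-concentration, 48-hour dose response in 96-well plates. TGI marks complete inhibition of growth.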

How the values were obtained:
Test in all cases: DTP human tumour cell line panel, 48 h
786-0 renal = test system: 786-0 renal
M14 melanoma = test system: M14 melanoma
CAKI-1 renal = test system: CAKI-1 renal
HOP-18 NSCLC = test system: HOP-18 NSCLC
TK-10 renal = test system: TK-10 renal
SK-MEL-28 melanoma = test system: SK-MEL-28 melanoma
OVCAR-8 ovarian = test system: OVCAR-8 ovarian
UO-31 renal = test system: UO-31 renal
OVCAR-5 ovarian = test system: OVCAR-5 ovarian
SK-MEL-5 melanoma = test system: SK-MEL-5 melanoma
ACHN renal = test system: ACHN renal
DMS 114 small cell lung = test system: DMS 114 small cell lung
SF-539 CNS = test system: SF-539 CNS
RPMI-8226 leukemia = test system: RPMI-8226 leukemia
M19-MEL melanoma = test system: M19-MEL melanoma
NCI-H23 lung = test system: NCI-H23 lung
SK-MEL-2 melanoma = test system: SK-MEL-2 melanoma
A498 renal = test system: A498 renal
DMS 273 small cell lung = test system: DMS 273 small cell lung
HCT-15 colon = test system: HCT-15 colon
SF-268 CNS = test system: SF-268 CNS
SN12C renal = test system: SN12C renal
HOP-62 NSCLC = test system: HOP-62 NSCLC
NCI-H460 lung = test system: NCI-H460 lung
HCT-116 colon = test system: HCT-116 colon
COLO 205 colon = test system: COLO 205 colon
U251 CNS = test system: U251 CNS
SF-295 CNS = test system: SF-295 CNS
SW-620 colon = test system: SW-620 colon
SNB-78 CNS = test system: SNB-78 CNS
SNB-75 CNS = test system: SNB-75 CNS
IGROV1 ovarian = test system: IGROV1 ovarian
A549 NSCLC = test system: A549 NSCLC
HCC-2998 colon = test system: HCC-2998 colon
MALME-3M melanoma = test system: MALME-3M melanoma
LOX IMVI melanoma = test system: LOX IMVI melanoma
KM20L2 colon = test system: KM20L2 colon
CCRF-CEM leukemia = test system: CCRF-CEM leukemia
KM12 colon = test system: KM12 colon
K-562 leukemia = test system: K-562 leukemia
UACC-257 melanoma = test system: UACC-257 melanoma
UACC-62 melanoma = test system: UACC-62 melanoma
EKVX NSCLC = test system: EKVX NSCLC
OVCAR-4 ovarian = test system: OVCAR-4 ovarian
SK-OV-3 ovarian = test system: SK-OV-3 ovarian
NCI-H226 lung = test system: NCI-H226 lung
XF 498 CNS = test system: XF 498 CNS
HT29 colon = test system: HT29 colon
OVCAR-3 ovarian = test system: OVCAR-3 ovarian
HOP-92 NSCLC = test system: HOP-92 NSCLC
SNB-19 CNS = test system: SNB-19 CNS
DLD-1 colon = test system: DLD-1 colon
HL-60(TB) leukemia = test system: HL-60(TB) leukemia
RXF 393 renal = test system: RXF 393 renal
LXFL 529 NSCLC = test system: LXFL 529 NSCLC
MOLT-4 leukemia = test system: MOLT-4 leukemia
NCI-H522 lung = test system: NCI-H522 lung
SR leukemia = test system: SR leukemia

Measured: TGI

CC(C)(C)C(=O)OCC1CCC(n2cnc3c(=O)[nH]c(N)nc32)O1 (stereo unspecified)
not listed: DLD-1 colon | HL-60(TB) leukemia | RXF 393 renal | LXFL 529 NSCLC | MOLT-4 leukemia | NCI-H522 lung | SR leukemia
> 100 µM: all other assays above

CC1=NN(C(=O)c2ccc([N+](=O)[O-])cc2)C(=O)C1N=Nc1ccccc1C(=O)O (stereo unspecified)
97.2 µM: HOP-92 NSCLC
not listed: M14 melanoma | HOP-18 NSCLC | HCT-15 colon | HOP-62 NSCLC | LOX IMVI melanoma | KM20L2 colon | OVCAR-4 ovarian | XF 498 CNS | SR leukemia
> 100 µM: all other assays above

Cc1cc(=O)oc2c(C)c(OCCCOc3ccc4c(C)cc(=O)oc4c3C)ccc12
not listed: ACHN renal | SN12C renal | COLO 205 colon | SNB-75 CNS | HCC-2998 colon | OVCAR-4 ovarian | NCI-H226 lung | RXF 393 renal
> 100 µM: all other assays above

O=[N+]([O-])CCc1cccc([N+](=O)[O-])c1
22.7 µM: SW-620 colon
not listed: SK-OV-3 ovarian | XF 498 CNS
> 100 µM: all other assays above
